# Measurements: article PMC3822589 (Journal of Cellular and Molecular Medicine, 2013)
# Entries after “also recorded” stand apart in the source; their conditions may differ. Where two headings read alike, the source gives them in different places.
# Columns and labels:
# [1] = tested on: Phospho-STAT5 (P-STAT5) levels in HEL cells (Jak2V617F); test: Western blot of phospho-STAT5 in HEL cells; format: cell-based, human; settings: for effect on phosphorylation of STAT5 (Western blot): 0.5, 1 or 5 μM, 3 hrs; for IC50 / IC50 values, WB (P-STAT5): mean ± SD
# [2] = tested on: Jak2V617F in γ2A-FRT-TI-Jak2V617F/STAT3-YFP cells; test: STAT3-YFP translocation assay; format: cell-based; settings: for IC50: read-out: IC50 values, STAT3-YFP translocation assay
# [3] = tested on: P-STAT5 in UKE-1 cells (Jak2V617F); test: Western blot of phospho-STAT5 in UKE-1 cells; format: cell-based; settings: 2.5 μM, 3 hrs
# [4] = tested on: P-STAT5 in BA/F3-EpoR-Jak2V617F cells; test: Western blot of phospho-STAT5 in BA/F3-EpoR-Jak2V617F cells; format: cell-based, murine; settings: 2.5 μM, 3 hrs
# [5] = tested on: Jak2V617F phosphorylation (P-Jak2) in HEL cells; test: Western blot of phospho-Jak2 in HEL cells; format: cell-based, human; settings: 0.5, 1 or 5 μM, 3 hrs
# HEL cells [6] = test: Cell cycle analysis; format: cell-based, human; settings: 500 nM CEP701, VX680, TG101209 or 100 nM AT9283
# [7] = tested on: phosphorylation of histone H3 (target of Aurora kinase B) in HEL cells; test: Quantitative Western blot of phospho-histone H3 in HEL cells; format: cell-based, human; settings: HEL cells blocked with Nocodazole; 0.25, 0.5 or 1 μM; 3 hrs
# HEL cells [8] = test: Cell size determination; format: cell-based, human; settings: 600 nM CEP701, TG101209, VX680 or 100 nM AT9283; 24, 48 or 72 hrs
# [9] = tested on: Jak2V617F in HEK-V617F-STAT-Rep. cells; test: pSTAT-ZsGreen reporter gene assay; format: cell-based; settings: for IC50: read-out: IC50 values, STAT-reporter gene assay
# HEL cells [10] = test: Cell proliferation assay; format: cell-based, human; settings: for effect on proliferation of HEL cells: 0.3 or 1 μM; for IC50: read-out: IC50 values, Proliferation assay
# [11] = tested on: γ2A-FRT-TI-Jak2V617F/STAT3-YFP cells; test: Nuclei size by confocal imaging and Cell Profiler; format: cell-based; settings: 24 hrs; Cell Profiler
# [12] = tested on: CD34+ cells of Jak2V617F-positive MPN patients; test: Colony forming cell; format: cell-based, human; settings: single inhibitor; 12–16 days of culture
# [13] = tested on: 2C4, HCT-116 and K-562 cells; test: Nuclei size in cell lines not expressing Jak2V617F; format: cell-based; settings: 500 nM; 48 hrs
# [14] = tested on: phosphorylation of histone H3 in UKE-1 cells; test: Quantitative Western blot of phospho-histone H3 in UKE-1 cells; format: cell-based; settings: UKE-1 cells blocked with Nocodazole; 0.25, 0.5 or 1 μM; 3 hrs
# [15] = tested on: phosphorylation of histone H3 in BA/F3-EpoR-Jak2V617F cells; test: Quantitative Western blot of phospho-histone H3 in BA/F3-EpoR-Jak2V617F cells; format: cell-based, murine; settings: BA/F3-EpoR-Jak2V617F cells blocked with Nocodazole; 0.25, 0.5 or 1 μM; 3 hrs
# [16] = Homo sapiens, HEL, read-out: IC50 values, WB (P-STAT5), HEL cells
# [17] = read-out: IC50 values, WB (P-STAT5), HEL cells
# [18] = HEK-V617F-STAT-Rep. cells, 24 hrs, mean ± SD
# [19] = γ2A-FRT-TI-Jak2V617F/STAT3-YFP cells, mean ± SD
Compound,effect on phosphorylation of STAT5 (Western blot) ([1]; HEL cells),effect on phosphorylation of STAT5 (Western blot) [3],effect on phosphorylation of STAT5 (Western blot) [4],effect on phosphorylation of Jak2 [5],effect on proliferation of HEL cells (HEL cells [10]; 72 hrs),effect on erythroid and myeloid colony growth [12],"IC50 values, WB (P-STAT5) ([1]; HEL cells)",also measured
O=C(Nc1c[nH]nc1-c1nc2ccc(CN3CCOCC3)cc2[nH]1)NC1CC1 [AT9283],strongly reduced phosphorylation of STAT5,efficiently decreased,efficiently decreased,increased phosphorylation of Jak2,,,,IC50 [2]: 74 ± 38 nM; effect on cell cycle profile (HEL cells [6]): emergence of an 8n peak; effect on histone H3 phosphorylation [7]: Reduction in histone H3 phosphorylation; effect on HEL cell size (HEL cells [8]): increased in size
Cc1cnc(Nc2ccc(OCCN3CCCC3)cc2)nc1Nc1cccc(S(=O)(=O)NC(C)(C)C)c1 [TG101348],showed the same effects but were less efficient,efficiently decreased,efficiently decreased,increased phosphorylation of Jak2,showed the same effects but were less efficient,,,"IC50 [1, 16]: ~600 nM; IC50 [1, 17]: 636 ± 203 nM; IC50 ([9]; 24 h): 850 ± 101 nM; IC50 [2]: 385 ± 61 nM; IC50 (HEL cells [10]; Homo sapiens, HEL, 72 h): 725 ± 85 nM; concentration at which nuclei size increases [11]: did not have this effect"
Cc1cnc(Nc2ccc(N3CCN(C)CC3)cc2)nc1Nc1cccc(S(=O)(=O)NC(C)(C)C)c1 [TG101209],strongly reduced phosphorylation of STAT5,efficiently decreased,efficiently decreased,increased phosphorylation of Jak2,reduced proliferation of HEL cells very effectively,,,"IC50 [1, 17]: 92 ± 18 nM; IC50 [9, 18]: 156 ± 10 nM; IC50 [2, 19]: 125 ± 45 nM; IC50 (HEL cells [10]; HEL cells, 72 hrs, mean ± SD): 243 ± 41 nM; concentration at which nuclei size increases [11]: did not show this effect; also recorded: did not have this effect; effect on cell cycle profile (HEL cells [6]): reduction in the G2/M peak intensity; effect on histone H3 phosphorylation [7]: only very little effect; effect on HEL cell size (HEL cells [8]): not observed"
CC(C)(C)c1nc2c3cc[nH]c(=O)c3c3cc(F)ccc3c2[nH]1 [JI1],strongly reduced phosphorylation of STAT5,efficiently decreased,efficiently decreased,increased phosphorylation of Jak2,reduced proliferation of HEL cells very effectively,,,"IC50 [1, 17]: 133 ± 62 nM; IC50 [9, 18]: 291 ± 40 nM; IC50 [2, 19]: 197 ± 73 nM; IC50 (HEL cells [10]; HEL cells, 72 hrs, mean ± SD): 506 ± 18 nM; concentration at which nuclei size increases [11]: did not have this effect"
CCN(CCCOc1ccc2c(Nc3cc(CC(=O)Nc4cccc(F)c4)n[nH]3)ncnc2c1)CCOP(=O)(O)O [AZD1152],,,,,,same behaviour,,
N#C/C(=C/c1ccc(O)c(O)c1)C(=O)NCc1ccccc1 [AG490],did not inhibit the phosphorylation of STAT5,did not inhibit STAT5 phosphorylation,did not inhibit STAT5 phosphorylation,not observed,neither affected cell growth,,No inhibition,
C/C(O)=C(\C#N)C(=O)Nc1cc(Br)ccc1Br [LFM-A13],did not inhibit the phosphorylation of STAT5,,,not observed,neither affected cell growth,,No inhibition,
C[C@H](NC(=O)/C(C#N)=C/c1cccc(Br)n1)c1ccccc1 [WP1066],did not inhibit the phosphorylation of STAT5,did not inhibit STAT5 phosphorylation,did not inhibit STAT5 phosphorylation,not observed,moderate effect,,No inhibition,"IC50 values, STAT-reporter gene assay [9, 18]: No inhibition"
Cc1cc(Nc2cc(N3CCN(C)CC3)nc(Sc3ccc(NC(=O)C4CC4)cc3)n2)[nH]n1 [VX680],did not inhibit the phosphorylation of STAT5,did not inhibit STAT5 phosphorylation,did not inhibit STAT5 phosphorylation,not observed,very efficiently inhibited HEL cell growth,reduced the numbers of myeloid colonies very efficiently but had less effect on erythroid colonies,No inhibition,"IC50 values, STAT-reporter gene assay [9, 18]: No inhibition; IC50 values, STAT3-YFP translocation assay [2, 19]: No inhibition; IC50 (HEL cells [10]; Homo sapiens, HEL, 72 h): 158 ± 26 nM; increase in nuclei size in cell lines not expressing Jak2V617F [13]: this effect was also clearly visible; effect on cell cycle profile (HEL cells [6]): emergence of an 8n peak; effect on histone H3 phosphorylation [7]: Reduction in histone H3 phosphorylation; effect on histone H3 phosphorylation [14]: decline of histone H3 phosphorylation; effect on histone H3 phosphorylation [15]: decline of histone H3 phosphorylation; effect on HEL cell size (HEL cells [8]): increased in size"
CO[C@@H](C(=O)N1Cc2n[nH]c(NC(=O)c3ccc(N4CCN(C)CC4)cc3)c2C1)c1ccccc1 [Danusertib],,,,,,same behaviour,,
O=C(Nc1cccc(Cl)c1)Nc1ncc(CCNc2ncnc3ccsc23)s1 [SNS314],,,,,,same behaviour,,
C[C@]12O[C@H](C[C@]1(O)CO)n1c3ccccc3c3c4c(c5c6ccccc6n2c5c31)CNC4=O [CEP701],strongly reduced phosphorylation of STAT5,efficiently decreased,efficiently decreased,increased phosphorylation of Jak2,reduced proliferation of HEL cells very effectively,erythroid and myeloid colonies were equally well suppressed,,"IC50 [1, 16]: ~100 nM; IC50 [1, 17]: 97 ± 39 nM; IC50 ([9]; 24 h): 111 ± 22 nM; IC50 [2]: 45 ± 15 nM; IC50 (HEL cells [10]; Homo sapiens, HEL, 72 h): 81 ± 20 nM; increase in nuclei size in cell lines not expressing Jak2V617F [13]: this effect was also clearly visible; effect on cell cycle profile (HEL cells [6]): emergence of an 8n peak; effect on histone H3 phosphorylation [7]: Reduction in histone H3 phosphorylation; effect on histone H3 phosphorylation [14]: decline of histone H3 phosphorylation; effect on histone H3 phosphorylation [15]: decline of histone H3 phosphorylation; effect on HEL cell size (HEL cells [8]): increased in size"
CCN(CC)CCNC(=O)c1c(C)[nH]c(/C=C2\C(=O)Nc3ccc(F)cc32)c1C [Sunitinib],did not inhibit the phosphorylation of STAT5,did not inhibit STAT5 phosphorylation,did not inhibit STAT5 phosphorylation,not observed,moderate effect,,No inhibition,
Nc1nc(Nc2ccc(S(N)(=O)=O)cc2)nn1C(=O)c1c(F)cccc1F [JNJ7706621],did not inhibit the phosphorylation of STAT5,,,not observed,neither affected cell growth,,No inhibition,
